Data taken from patent US8580965B2, “Substituted sulfonamide compounds” (Gruenenthal GmbH, priority 2006, dated 2013).

Tests used:
[1] = target: T1, B1R receptor of the rat (bradykinin 1 receptor) (Rattus norvegicus, UniProt P97583); assay: FLIPR Ca2+ assay (Fluo-4) on CHO K1 cells stably transfected with the B1R gene of the rat; % activation and % inhibition at 10 μM; type: cell-based; conditions: CHO-K1, test substance 10 μM; CHO K1 rB1R cells; Ca2+ inflow after 100 nM Des-Arg9-bradykinin; read-out: B1R antagonism, rat [10 μM] % inhibition
T1 construct: host or cells: CHO K1 cells (rB1R cells)
T1 sequence (P97583 1-337): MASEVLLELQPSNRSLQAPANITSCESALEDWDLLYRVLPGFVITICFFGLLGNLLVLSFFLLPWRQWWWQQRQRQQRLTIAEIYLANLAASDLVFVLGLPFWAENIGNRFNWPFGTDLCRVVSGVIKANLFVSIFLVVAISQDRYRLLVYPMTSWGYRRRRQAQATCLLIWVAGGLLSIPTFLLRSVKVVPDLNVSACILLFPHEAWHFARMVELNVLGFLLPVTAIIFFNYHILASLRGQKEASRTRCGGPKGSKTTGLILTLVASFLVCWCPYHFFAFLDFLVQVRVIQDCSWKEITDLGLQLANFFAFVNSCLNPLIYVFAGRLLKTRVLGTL
Procedure, shortened: (§1)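 CHO K1 cells stably expressing human or rat B1R, Fluo-4 loaded, read by FLIPR (peak fluorescence). Compound at 10 µM first gives % activation versus agonist; after 10 min, agonist (human: 0.5 nM Lys-Des-Arg9-bradykinin; rat: 100 nM Des-Arg9-bradykinin) gives % inhibition relative to maximal inhibition.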

[2] = target: T2, human B1R receptor (bradykinin 1 receptor) (Homo sapiens, UniProt P46663); assay: FLIPR Ca2+ assay (Fluo-4) on CHO K1 cells stably transfected with the human B1R gene; % activation and % inhibition at 10 μM; type: cell-based; conditions: CHO-K1, test substance 10 μM; CHO K1 hB1R cells; Ca2+ inflow after 0.5 nM Lys-Des-Arg9-bradykinin; read-out: B1R antagonism, human [10 μM] % inhibition
T2 construct: host or cells: CHO K1 cells (hB1R cells)
T2 sequence (P46663 1-353): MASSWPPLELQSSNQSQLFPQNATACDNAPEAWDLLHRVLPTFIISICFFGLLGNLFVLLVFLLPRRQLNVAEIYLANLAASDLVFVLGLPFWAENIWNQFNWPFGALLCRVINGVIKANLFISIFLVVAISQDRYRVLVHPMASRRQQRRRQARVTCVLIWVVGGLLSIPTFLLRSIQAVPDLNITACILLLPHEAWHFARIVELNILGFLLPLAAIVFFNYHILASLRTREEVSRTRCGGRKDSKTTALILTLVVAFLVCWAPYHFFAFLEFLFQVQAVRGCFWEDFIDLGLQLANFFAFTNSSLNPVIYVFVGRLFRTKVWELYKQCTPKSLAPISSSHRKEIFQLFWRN
Procedure, shortened: as §1

Row | SMILES | inhibition at 10 µM [1] [%] | inhibition at 10 µM [2] [%]
1 | COc1cc(C)c(S(=O)(=O)N(C)CCOCCC(=O)N2CCC(O)(c3cccnc3)CC2)c(C)c1 [Example 133, N-(2-(3-(4-hydroxy-4-(pyridin-3-yl)piperidin-1-yl)-3-oxopropoxy)ethyl)-4-methoxy-N,2,6-trimethylphenylsulfonamide] | 96.1 | 84.1
2 | COc1ccc(S(=O)(=O)N2Cc3ccccc3C[C@H]2COCC(=O)N2CCC(O)(c3cccnc3)CC2)cc1 [Example 134, (S)-1-(4-hydroxy-4-(pyridin-3-yl)piperidin-1-yl)-2-((2-(4-methoxyphenylsulfonyl)-1,2,3,4-tetrahydroisoquinolin-3-yl)methoxy)ethanone] | 29.1 | 66
3 | O=C(COCC1Cc2ccccc2N1S(=O)(=O)c1ccc(Cl)cc1Cl)N1CCC(O)(c2cccnc2)CC1 (stereo not shown) [Example 135, 2-((1-(2,4-dichlorophenylsulfonyl)indolin-2-yl)methoxy)-1-(4-hydroxy-4-(pyridin-3-yl)piperidin-1-yl)ethanone] | 100 | 99.8
4 | COc1cc(C)c(S(=O)(=O)N(C)CCOCC(=O)N2CCC(O)(c3ccc(Cl)cc3)CC2)c(C)c1 [Example 136, N-(2-(2-(4-(4-chlorophenyl)-4-hydroxypiperidin-1-yl)-2-oxoethoxy)ethyl)-4-methoxy-N,2,6-trimethylphenylsulfonamide] | 95.3 | 93.6
5 | COc1cc(C)c(S(=O)(=O)N(C)CCOCC(=O)N2CCC(O)(c3ccccc3)CC2)c(C)c1 [Example 137, N-(2-(2-(4-hydroxy-4-phenylpiperidin-1-yl)-2-oxoethoxy)ethyl)-4-methoxy-N,2,6-trimethylphenylsulfonamide] | 99.3 | 101
6 | COc1cc(C)c(S(=O)(=O)N2CCCCC2COCC(=O)N2CCC(O)(c3ccccn3)CC2)c(C)c1 (stereo not shown) [Example 138, 1-(4-hydroxy-4-(pyridin-2-yl)piperidin-1-yl)-2-((1-(4-methoxy-2,6-dimethylphenylsulfonyl)piperidin-2-yl)methoxy)ethanone] | 99.6 | 102
7 | COc1cc(C)c(S(=O)(=O)N(CCOCC(=O)N2CCC(O)(c3cccnc3)CC2)C2CC2)c(C)c1 [Example 139, N-cyclopropyl-N-(2-(2-(4-hydroxy-4-(pyridin-3-yl)piperidin-1-yl)-2-oxoethoxy)ethyl)-4-methoxy-2,6-dimethylphenylsulfonamide] | 101 | 104
8 | COc1cc(C)c(S(=O)(=O)N(C)CCOCC(=O)N2CCC(O)(CCc3cccnc3)CC2)c(C)c1 [Example 140, N-(2-(2-(4-hydroxy-4-(2-(pyridin-3-yl)ethyl)piperidin-1-yl)-2-oxoethoxy)ethyl)-4-methoxy-N,2,6-trimethylphenylsulfonamide] | 101 | 104
9 | COc1cc(C)c(S(=O)(=O)N(C)CCOCC(=O)N2CCC(O)(c3cccc(F)c3)CC2)c(C)c1 [Example 141, N-(2-(2-(4-(3-fluorophenyl)-4-hydroxypiperidin-1-yl)-2-oxoethoxy)ethyl)-4-methoxy-N,2,6-trimethylphenylsulfonamide] | 100 | 104
10 | COc1cc(C)c(S(=O)(=O)N2CCCCC2COCC(=O)N2CCC(O)(c3cccc(F)c3)CC2)c(C)c1 (stereo not shown) [Example 142, 1-(4-(3-fluorophenyl)-4-hydroxypiperidin-1-yl)-2-((1-(4-methoxy-2,6-dimethylphenylsulfonyl)piperidin-2-yl)methoxy)ethanone] | 100 | 103
11 | COc1cc(C)c(S(=O)(=O)N(C)CCOCC(=O)N2CCC(O)(c3cccnc3)CC2)c(C)c1 [Example 143, N-(2-(2-(4-hydroxy-4-(pyridin-3-yl)piperidin-1-yl)-2-oxoethoxy)ethyl)-4-methoxy-N,2,6-trimethylphenylsulfonamide] | 100 | 105
12 | COc1cc(C)c(S(=O)(=O)N2CCCCC2COCC(=O)N2CCC(O)(c3ccncc3)CC2)c(C)c1 (stereo not shown) [Example 144, 1-(4-hydroxy-4-(pyridin-4-yl)piperidin-1-yl)-2-((1-(4-methoxy-2,6-dimethylphenylsulfonyl)piperidin-2-yl)methoxy)ethanone] | 101 | 104
13 | O=C(COCC1CCc2ccccc2N1S(=O)(=O)c1ccc(Cl)c(Cl)c1)N1CCC(O)(c2ccccn2)CC1 (stereo not shown) [Example 146, 2-((1-(3,4-dichlorophenylsulfonyl)-1,2,3,4-tetrahydroquinolin-2-yl)methoxy)-1-(4-hydroxy-4-(pyridin-2-yl)piperidin-1-yl)ethanone] | 92.8 | 70.7
14 | O=C(COCC1CCc2ccccc2N1S(=O)(=O)c1ccc(Cl)c(Cl)c1)N1CCC(O)(c2ccncc2)CC1 (stereo not shown) [Example 147, 2-((1-(3,4-dichlorophenylsulfonyl)-1,2,3,4-tetrahydroquinolin-2-yl)methoxy)-1-(4-hydroxy-4-(pyridin-4-yl)piperidin-1-yl)ethanone] | 93.3 | 53.9
15 | Cc1ccc2ccccc2c1S(=O)(=O)N(C)CCOCC(=O)N1CCC(O)(c2cccnc2)CC1 [Example 148, N-(2-(2-(4-hydroxy-4-(pyridin-3-yl)piperidin-1-yl)-2-oxoethoxy)ethyl)-N,2-dimethylnaphthalene-1-sulfonamide] | 99 | 100
16 | Cc1cc(S(=O)(=O)N(C)CCOCC(=O)N2CCC(O)(c3cccnc3)CC2)c(C)cc1Cl [Example 149, 4-chloro-N-(2-(2-(4-hydroxy-4-(pyridin-3-yl)piperidin-1-yl)-2-oxoethoxy)ethyl)-N,2,5-trimethylphenylsulfonamide] | 100 | 99.1
17 | Cc1cc(S(=O)(=O)N(C)CCOCC(=O)N2CCC(O)(c3ccc(Cl)cc3)CC2)c(C)cc1Cl [Example 150, 4-chloro-N-(2-(2-(4-(4-chlorophenyl)-4-hydroxypiperidin-1-yl)-2-oxoethoxy)ethyl)-N,2,5-trimethylphenylsulfonamide] | 93.7 | 95.3
18 | Cc1cc(S(=O)(=O)N(C)CCOCC(=O)N2CCC(O)(c3ccc(Br)cc3)CC2)c(C)cc1Cl [Example 151, N-(2-(2-(4-(4-bromophenyl)-4-hydroxypiperidin-1-yl)-2-oxoethoxy)ethyl)-4-chloro-N,2,5-trimethylphenylsulfonamide] | 86.9 | 97.8
19 | Cc1cc(S(=O)(=O)N(C)CCOCC(=O)N2CCC(O)(c3ccccc3)CC2)c(C)cc1Cl [Example 152, 4-chloro-N-(2-(2-(4-hydroxy-4-phenylpiperidin-1-yl)-2-oxoethoxy)ethyl)-N,2,5-trimethylphenylsulfonamide] | 77.2 | 81.6
20 | Cc1cc(S(=O)(=O)N(C)CCOCC(=O)N2CCC(O)(Cc3ccccc3)CC2)c(C)cc1Cl [Example 153, N-(2-(2-(4-benzyl-4-hydroxypiperidin-1-yl)-2-oxoethoxy)ethyl)-4-chloro-N,2,5-trimethylphenylsulfonamide] | 69.1 | 71.8
